Source: PubChem BioAssay (NCI)
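Where inhibition never reached the appropriate level, the endpoint shown equals the highest concentration tested. Otherwise, values were interpolated linearly from a five-concentration, 48-hour dose response in 96-well plates. Abbreviation: GI50, concentration required for 50% inhibition of growth. TGI marks complete inhibition of growth.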

What was measured:
Test in all cases: NCI tumour cell line growth inhibition, 48 h
SR leukemia = test system: SR leukemia
SNB-19 CNS = test system: SNB-19 CNS
HCT-15 colon = test system: HCT-15 colon
T-47D breast = test system: T-47D breast
A549 NSCLC = test system: A549 NSCLC
HOP-62 NSCLC = test system: HOP-62 NSCLC
COLO 205 colon = test system: COLO 205 colon
UACC-257 melanoma = test system: UACC-257 melanoma
MOLT-4 leukemia = test system: MOLT-4 leukemia
IGROV1 ovarian = test system: IGROV1 ovarian

| SMILES | GI50 (SR leukemia) | TGI (SR leukemia) | GI50 (SNB-19 CNS) | TGI (SNB-19 CNS) | GI50 (HCT-15 colon) | TGI (HCT-15 colon) | GI50 (T-47D breast) | TGI (T-47D breast) | GI50 (A549 NSCLC) | TGI (A549 NSCLC) | GI50 (HOP-62 NSCLC) | TGI (HOP-62 NSCLC) | GI50 (COLO 205 colon) | TGI (COLO 205 colon) | GI50 (UACC-257 melanoma) | TGI (UACC-257 melanoma) | GI50 (MOLT-4 leukemia) | TGI (MOLT-4 leukemia) | GI50 (IGROV1 ovarian) | TGI (IGROV1 ovarian) |
| --- | --- | --- | --- | --- | --- | --- | --- | --- | --- | --- | --- | --- | --- | --- | --- | --- | --- | --- | --- | --- |
| CC(C)(C)c1cc(C(C)(C)C)cc(S(=O)(=O)Nc2cc3ccccc3cc2C(=O)NCCN)c1 | 1.9 µM | 4.43 µM | 1.89 µM | 3.52 µM | 1.64 µM | 3.04 µM | 1.7 µM | 3.6 µM | 1.95 µM | 3.77 µM | 1.57 µM | 3.01 µM | 1.82 µM | 3.37 µM | 2.09 µM | 4.02 µM | 2.32 µM | 5.77 µM | – | – |
| CN1C/C=C\CCOc2cccc(c2)-c2ccnc(n2)Nc2cccc(c2)C1 | 0.0196 µM | 0.116 µM | 0.057 µM | 4.25 µM | 0.0435 µM | 1.96 µM | 0.0413 µM | 0.334 µM | 0.0469 µM | 0.8 µM | 0.0482 µM | 0.402 µM | 0.024 µM | 0.0762 µM | 0.0722 µM | 0.371 µM | 0.0371 µM | 0.874 µM | 0.0487 µM | 1.31 µM |
| O=C1OC(C(O)CO)C(=O)C1=O (stereo not given) | 3860 µM | > 10000 µM | 8280 µM | > 10000 µM | 3420 µM | > 10000 µM | 2790 µM | 7700 µM | 9790 µM | > 10000 µM | 3720 µM | 8570 µM | 2800 µM | 6730 µM | > 10000 µM | > 10000 µM | 4120 µM | > 10000 µM | 2350 µM | 5170 µM |
| NS(=O)(=O)c1ccc(NC2(C(=O)O)CCCC2)cc1 | – | > 100 µM | – | > 100 µM | – | > 100 µM | – | > 100 µM | – | > 100 µM | – | > 100 µM | – | > 100 µM | – | > 100 µM | – | > 100 µM | – | > 100 µM |
| Cn1c2c(c3ccccc31)CC1c3c(c4ccccc4n3C)CC21 (stereo not given) | – | > 100 µM | – | > 100 µM | – | > 100 µM | – | > 100 µM | – | > 100 µM | – | > 100 µM | – | > 100 µM | – | > 100 µM | – | > 100 µM | – | > 100 µM |
| CN1c2ccc(Cl)cc2C(=O)NC1c1ccc([N+](=O)[O-])s1 (stereo not given) | – | 35.1 µM | – | > 100 µM | – | 35.9 µM | – | 55 µM | – | 92 µM | – | 59.6 µM | – | 66.4 µM | – | 29.1 µM | – | 33.7 µM | – | 31.5 µM |
| COc1cc2ncnc(Nc3ccc(C)c(O)c3)c2cc1OC | > 25 µM | > 25 µM | > 25 µM | > 25 µM | 14.1 µM | > 25 µM | 7.79 µM | > 25 µM | 18.1 µM | > 25 µM | > 25 µM | > 25 µM | > 25 µM | > 25 µM | > 25 µM | > 25 µM | > 25 µM | > 25 µM | 1.98 µM | > 12 µM |
| CN1CCN(CCCOc2ccc3nc(Nc4ccc(Cl)c(C(F)(F)F)c4)ccc3c2)CC1 | 2.7 µM | 10.7 µM | 16.2 µM | 34.5 µM | 3.66 µM | 13.3 µM | 17.6 µM | 37.3 µM | 14.7 µM | 28.9 µM | 14.9 µM | 29.6 µM | 9.79 µM | 24.4 µM | 18.8 µM | 33.4 µM | 8.2 µM | 24.3 µM | 13.2 µM | 30.1 µM |
| COC1=C(C)C(=O)c2c(c(COC(N)=O)c3n2CC2C3N2C)C1=O (stereo not given) | – | < 0.0354 µM | – | 0.256 µM | – | 0.0719 µM | – | 0.201 µM | – | 0.0645 µM | – | 0.074 µM | – | 0.119 µM | – | 0.0641 µM | – | 0.104 µM | – | 0.351 µM |
| CC(C)(C)c1cc(Br)c(O)c(CN(Cc2cc(C(C)(C)C)cc(Br)c2O)C2CCCCC2)c1 | – | 25.6 µM | – | 27.1 µM | – | 25.4 µM | – | 21.4 µM | – | 27.1 µM | – | 28.5 µM | – | 23.3 µM | – | 16.5 µM | – | 26 µM | – | 28.7 µM |
| COc1ccc(/C=C/c2ccnc3ccccc23)c(OC)c1 | – | – | – | > 10 µM | – | > 10 µM | – | > 10 µM | – | > 10 µM | – | > 10 µM | – | > 10 µM | – | > 10 µM | – | > 10 µM | – | > 10 µM |
| CC(C)n1nc(-c2cc3cc(O)ccc3[nH]2)c2c(N)ncnc21 | 0.191 µM | 2.93 µM | 1.52 µM | 17.9 µM | 0.342 µM | 13.9 µM | 0.0435 µM | 0.417 µM | 0.313 µM | 2.67 µM | 0.393 µM | 3.56 µM | 0.363 µM | 4.19 µM | 0.161 µM | 1.7 µM | 0.315 µM | 6.2 µM | 0.0945 µM | 0.774 µM |
| C[C@@]12CC=C3c4nc(Nc5cccc(O)c5)sc4CC[C@]3(C)[C@H]1CC[C@]1(C)C(=O)CC[C@@H]21 | 1.87 µM | > 100 µM | 3.88 µM | 55.7 µM | 1.38 µM | 3.33 µM | 2.61 µM | 8.3 µM | 4.6 µM | > 100 µM | 2.75 µM | 8.12 µM | 2.17 µM | 4.38 µM | 3.69 µM | > 100 µM | – | – | 2.23 µM | 6.04 µM |
| CCCCC(O)(c1ccc(Cl)cc1)C(CN1CCOCC1)c1ccc(Cl)cc1 (stereo not given) | 12.5 µM | 32.3 µM | 15.3 µM | 36.6 µM | 11.2 µM | 26.2 µM | 11.3 µM | 25 µM | 12.5 µM | 30.9 µM | 16.3 µM | 34.5 µM | 10.8 µM | 25.5 µM | 14.3 µM | 35 µM | 10.7 µM | 30.7 µM | 8.68 µM | 33 µM |
| c1cc(CNC23CC4CC(CC(C4)C2)C3)cc(C[N+](Cc2cccc(CNC34CC5CC(CC(C5)C3)C4)c2)(Cc2cccc(CNC34CC5CC(CC(C5)C3)C4)c2)Cc2cccc(CNC34CC5CC(CC(C5)C3)C4)c2)c1 (stereo not given) | 6.22 µM | 209 µM | 8.05 µM | 30.4 µM | 4.59 µM | 16.4 µM | 5.59 µM | 28.1 µM | 8.91 µM | 36.4 µM | 11.1 µM | 42.1 µM | 4.57 µM | 13.1 µM | 12.9 µM | 45.3 µM | 5.52 µM | 17.1 µM | 3.7 µM | 9.8 µM |
